Results on 2 compounds are retold here after patent publication US10674728B2, “Pesticidal compositions” (SYNGENTA PARTICIPATIONS AG, priority 2016, dated 2020).

Experiment [1] has as its system Glomerella lagenarium syn. Colletotrichum lagenarium. Kind of experiment: Tests against Glomerella lagenarium (anthracnose of cucurbits), growth inhibition in microtiter plate. In kind it is cell-based. The settings on record: Colletotrichum orbiculare, 72 hrs, 24° C., read-out: Observed % activity.
The next experiment has as its system Rhizoctonia solani. Kind of experiment: Tests against Rhizoctonia solani (foot rot, damping-off), growth inhibition in microtiter plate. In kind it is cell-based. The settings on record: 72 hrs, 24° C., read-out: Observed % activity.
For another experiment, the system named is Pyricularia orzyae. Kind of experiment: microbe, parasite or virus in culture. It is filed as cell-based. The settings on record: 72 h, read-out: Observed % activity.
For experiment [2], the system named is Rice (Oryza sativa L.) of the local variety ADT45. Kind of experiment: Heat stress mitigation field trials in rice, grain yield. It is filed as in vivo. The settings on record: 10 gAl/Ha, foliar spray at panicle formation (BBCH 32), hot season. How it is done:
Tests were conducted to determine the heat stress mitigation efficacy of compositions of the present invention.
Trials were conducted in the Tamil Nadu rice production area (India) during the hot season in 2016.
Rice (Oryza sativa L.) of the local variety ADT45 was mechanically transplanted at four plants per hill with a plant spacing of 16 cm and a row spacing of 30 cm. All trials were performed in good level of water management. Fertilizer was applied in accordance with the best local practice across the trial area.
Commercial treated seeds (no neonicotinoids as seed treatments) were used. Weed control was according to the best local practice in order to provide excellent weed control. Foliar fungicides and insecticides were applied according to common practice (no products that contain neonicotinoids or strobilurins).
The trial design was a randomized bloc design. Plot size was 40 m^2 (4 m width [12 rows] by 10 m row length). Each trial had four replicates. In total, eleven trials were conducted.
Treatments were applied with small-plot hand-held boom sprayer as broadcast foliar spray in close proximity to leaf/canopy surface (25-40 cm distance from the crop), at the following different treatment timings: panicle initiation (BBCH 30), panicle formation (BBCH 32), spikelet differentiation (BBCH 35) and meiosis (BBCH 39).

The mark [3] stands for this setting: (A) Formula (Ia) 10.0 ppm alone.

Take `CC1COC(Cn2cncn2)(c2ccc(Oc3ccc(Cl)cc3)cc2Cl)O1` (stereo not shown) [Difenoconazole, difenoconazole, reference compound]: the inhibition at 0.25 ppm in experiment [1] ((B) Difenoconazole 0.25 ppm alone) is 36%. Besides, the inhibition at 2 ppm in the experiment with Rhizoctonia solani ((B) Difenoconazole 2.0 ppm alone) was 47%. Further, in the experiment with Pyricularia orzyae, the inhibition at 0.0625 ppm came out at 34% and the inhibition at 0.25 ppm worked out at 71%.

Regarding `COc1cccc(Nc2nc(F)nc3[nH]cnc23)c1` [Formula (Ia)], in experiment [1] ((A) Formula (Ia) 0.6250 ppm alone, inhibition of growth, photometric at 620 nm), the inhibition at 0.625 ppm was 5%. For the same compound, the inhibition at 1.25 ppm in experiment [1] ((A) Formula (Ia) 1.25 ppm alone) was 0%. For the same compound, the inhibition at 2.5 ppm in experiment [1] ((A) Formula (Ia) 2.5 ppm alone) is 2%. Besides, the inhibition at 5 ppm in experiment [1] ((A) Formula (Ia) 5.0 ppm alone) was determined as 0%; in the experiment with Rhizoctonia solani ((A) Formula (Ia) 5.0 ppm alone, inhibition of growth, photometric), 7%. The figures for the inhibition at 10 ppm (in experiment [1] (setting [3]); in the experiment with Rhizoctonia solani (setting [3]); in the experiment with Pyricularia orzyae) were 0%, 0% and 3%, respectively. Besides, in the experiment with Rhizoctonia solani ((A) Formula (Ia) 20.0 ppm alone), the inhibition at 20 ppm came to 0%. Besides, in the experiment with Pyricularia orzyae, the inhibition at 0.1563 ppm came to 0%. Further, the “Average yield increase compared to UTC” value in experiment [2] is 4.4%. Besides, the “Yield at 14% MC” value in experiment [2] is given as 6820 kg/ha.
